Source: patent publication US20150104870A1, “NEURONAL DIFFERENTIATION PROMOTER” (KEIO UNIVERSITY, priority 2012, published 2015)
“Also recorded” adds a separate entry of the source.

Key:
[1] = tested on: developing mouse brain; experiment: In utero lentiviral microinjection, fate of infected cells in cerebral cortex; type: in vivo; conditions: lentivirus injected in utero at E10.5, examined at P30
Experimental: Experiments were performed using ICR mice. All aspects of animal care and treatment were carried according to the guidelines of the Experimental Animal Committee of Keio University School of Medicine. In utero microinjection of lentivirus particles into the brain of E10.5 ICR mouse was guided by an in vivo ultrasound real-time scanner (Vevo660; VisualSonics).
(§1) Immunocytechemistry and immunohistochemistry were performed as previously described (Nat. Neurosci. 11, 1014-1023 (2008)) using antibodies against βIII-tubulin, NeuN (neural marker), glial fibrillary acidic protein (GFAP, astrocyte marker), and haemagglutinin (HA).

[2] = tested on: p2 neurospheres; experiment: Mouse ESC-derived neurosphere differentiation assay; type: cell-based; conditions: for neuronal differentiation (βIII-tubulin-positive neurons) of p2 neurospheres: lentiviral overexpression in NSCs from p0 stage, differentiated at p2, control miR-LacZ
Experimental: (§2) Mouse ESC (EB3) culture, EB formation, neurosphere formation and differentiation of neurosphere were performed as previously described (Nat. Neurosci. 11, 1014-1023 (2008)). Human NSCs were grown as previously described (J. Neurosci. Res. 69, 869-879 (2002); J. Neurosci. Res. 87, 307-317 (2009)) without […] growth factor (EGF), and allowed to differentiate on a substrate-coated coverslips in the absence of mitogen for 14 days, a procedure similar to that used for mouse neurosphere.
as §1

[3] = tested on: Gfap promoter; experiment: Bisulfite sequencing of CpG methylation status; type: cell-based, mouse
Description: The methylation frequency of 10 CpG sequences on the Gfap promoter, including the CpG site in the STAT3-binding sequence as indicated by the arrows, was examined. The graphs show the percentages of methylated CpG cytosines in the whole Gfap promoter (left graph) and the STAT3-binding region (right graph) (t test, n (≧10 clones)=3, NS (not significant), P>0.05). Bars and error bars represent the mean+s.e.m for each condition.

[4] = tested on: p38; experiment: Western blotting of p38 expression in neurospheres; type: cell-based, mouse; conditions: p2 neurospheres
[5] = tested on: miR-17 binding site in 3′UTR of p38 mRNA; experiment: DsRed-Express2 reporter assay (Mp38 sensor) in HEK293 cells; type: cell-based, human; conditions: HEK293 stable transformant, FACS one week after lentivirus, compared to miR-LacZ
Description: FIG. 17 is a graph showing that miR-17 binds to a binding site in the 3′ untranslated region (UTR) of mouse p38 mRNA. […] The miR-17 binding site in 3′UTR of p38 mRNA (to be referred to as “Mp38 sensor”; 2970-2992 of NM_011951) was cloned into a mammal expression vector of the DsRed-Express2 reporter system. After transformation of HEK293 cells, lentiviruses expressing miR-LacZ or miR-17 were introduced into a stable transformant. One week later, the intracellular expression level of DsRed-Express2 was analyzed by FACS. […] (t-test, n (≧3000 cells)=3, **P<0.01). Bars and error bars represent the mean+s.e.m for each condition.

[6] = tested on: human fetal brain-derived neurospheres; experiment: Human neurosphere differentiation assay; type: cell-based; conditions: human neurospheres treated with inhibitor, vs control
Experimental: as §2, §1

## miR-17: miRNA targeting p38, SEQ ID NO: 5, overexpressed by lentivirus (guide CAAAGUGCUUACAGUGCAGGUAG; listed as Mus musculus)
[1]
  infected cells fated to become neurons in the cerebral cortex: 97.6%
[2]; LIF (10 ng/ml) and BMP2 (100 ng/ml) during differentiation, p2 stage
  differentiation of p2 neurospheres in presence of gliogenic cytokines: differentiated exclusively into neurons; also recorded: did not undergo gliogenesis
[2]; lentiviral infection at onset of p3 stage, within 1 week
  neuropotency of p3 neurospheres: marked recovery of neuropotency; also recorded: restored neuropotency of mouse p3 neurospheres
[2]
  neuronal differentiation (βIII-tubulin-positive neurons) of p2 neurospheres: replicated the phenotype induced by the intact miR-17-92 cluster
[3]; p2 neurosphere stage, overexpression from p0
  CpG methylation of Gfap promoter: no significant changes in the extent of CpG methylation
[3]; p3 neurospheres
  DNA methylation status of the Gfap promoter: did not change significantly
[4]
  p38 protein expression: suppressed p38 expression at p2 stage
[5]
  DsRed-Express2 reporter expression linked to Mp38 sensor / interaction with p38 mRNA: direct interaction; also recorded: caused a decrease in DsRed-Express2

## miR-106a: miRNA targeting p38, SEQ ID NO: 6, paralog of miR-17 (CAAAGUGCUAACAGUGCAGGUAG; listed as RNA, chemistry not fully specified; listed as Mus musculus)
[2]
  neuronal differentiation (βIII-tubulin-positive neurons) of p2 neurospheres: led to a neuronal phenotype

## miR-106b: miRNA targeting p38, SEQ ID NO: 7, paralog of miR-17 (UAAAGUGCUGACAGUGCAGAU; listed as RNA, chemistry not fully specified; listed as Mus musculus)
[2]
  neuronal differentiation (βIII-tubulin-positive neurons) of p2 neurospheres: led to a neuronal phenotype; also recorded: stronger than that of miR-106a

## C[S+]([O-])c1ccc(-c2nc(-c3ccncc3)c(-c3ccc(F)cc3)[nH]2)cc1 (stereo not drawn) [SB203580, reference compound]
[2]; mouse p2 neurospheres, treatment with inhibitor during growth, vs control
  percentage of neurons differentiated from p2 neurospheres (neuropotency): showed higher neuropotency than controls; also recorded: increased the percentage of neurons differentiated from p2 neurospheres
[6]
  percentage of neurons differentiated from human neurospheres (neuropotency): restored neuropotency; also recorded: increased the percentage of neurons differentiated from the neurospheres
